From patent US9371265B2, “Compositions and methods related to inhibitors of JAK kinase” (EP PHARMA, INC., priority 2012, dated 2016)

Assays:
Type in all cases: biochemical
Settings in all cases: 10 μM EP009
[1] = molecular target: MLK1 (Homo sapiens, UniProt P80192); assay: Kinase panel: MLK1
Procedure: (§1) Achieving JAK3 selectivity remains a significant challenge in the development of new small molecules for the treatment of cancer and immune-derived diseases. As such, the inventors employed cell-based screening assays of small-molecule libraries based upon the chemical scaffold of the established JAK3 inhibitor NC1153 (Stepkowski et al., J Immunol. (2005), 175(7):4236-4246) EP009 (FIG. 2A) was selected as a lead compound due to improved intrinsic stability (>95% purity in various solvents at 37° C. for 24 hours; FIG. 3) and high-degree of JAK3 selectivity. To test JAK3 versus JAK2 specificity of EP009, the IL-2/JAK3-dependent Kit225, and IL-3/JAK2-dependent BaF/3 cell lines were used. Kit225 and BaF/3 cells growing in the presence of IL-2 or IL-3, respectively, were treated with ascending concentrations of EP009 for 12 hours and cellular JAK3 and JAK2 tyrosine phosphorylation levels detected by Western blot analysis (FIGS. 2B and 2C). Following densitometric analysis, EP009 was determined to dose-dependently reduce IL-2-mediated JAK3 tyrosine phosphorylation with a cellular 50% inhibitory concentration (IC50) between 10 and 20 μM (FIG. 2B). […] To globally evaluate specificity, the inhibitory activity of EP009 was measured against a panel of protein kinases distributed throughout the kinome using the scanEDGE profiling service (KINOMEscan). […]

[2] = molecular target: EGFR(L858R) (Homo sapiens, UniProt P00533, L858R); assay: Kinase panel: EGFR(L858R)
Procedure: as §1

[3] = molecular target: RAF1 (Homo sapiens, UniProt P04049); assay: Kinase panel: RAF1
Procedure: as §1

[4] = molecular target: PAK2 (Homo sapiens, UniProt Q13177); assay: Kinase panel: PAK2
Procedure: as §1

[5] = molecular target: TSSK1B (Homo sapiens, UniProt Q9BXA7); assay: Kinase panel: TSSK1B
Procedure: as §1

[6] = molecular target: PDGFRA (Homo sapiens, UniProt P16234); assay: Kinase panel: PDGFRA
Procedure: as §1

[7] = molecular target: PIK3C2B (Homo sapiens, UniProt O00750); assay: Kinase panel: PIK3C2B
Procedure: as §1

[8] = molecular target: ERK1 (Homo sapiens, UniProt P27361); assay: Kinase panel: ERK1
Procedure: as §1

[9] = molecular target: KIT(V559D, T670I) (Homo sapiens, UniProt P10721, T670I/V559D); assay: Kinase panel: KIT(V559D, T670I)
Procedure: as §1

[10] = molecular target: ADCK3 (Homo sapiens, UniProt Q8NI60); assay: Kinase panel: ADCK3
Procedure: as §1

[11] = molecular target: MET (Homo sapiens, UniProt P08581); assay: Kinase panel: MET
Procedure: as §1

[12] = molecular target: PDGFRB (Homo sapiens, UniProt P09619); assay: Kinase panel: PDGFRB
Procedure: as §1

Sequence of PAK2 (Q13177 whole entry): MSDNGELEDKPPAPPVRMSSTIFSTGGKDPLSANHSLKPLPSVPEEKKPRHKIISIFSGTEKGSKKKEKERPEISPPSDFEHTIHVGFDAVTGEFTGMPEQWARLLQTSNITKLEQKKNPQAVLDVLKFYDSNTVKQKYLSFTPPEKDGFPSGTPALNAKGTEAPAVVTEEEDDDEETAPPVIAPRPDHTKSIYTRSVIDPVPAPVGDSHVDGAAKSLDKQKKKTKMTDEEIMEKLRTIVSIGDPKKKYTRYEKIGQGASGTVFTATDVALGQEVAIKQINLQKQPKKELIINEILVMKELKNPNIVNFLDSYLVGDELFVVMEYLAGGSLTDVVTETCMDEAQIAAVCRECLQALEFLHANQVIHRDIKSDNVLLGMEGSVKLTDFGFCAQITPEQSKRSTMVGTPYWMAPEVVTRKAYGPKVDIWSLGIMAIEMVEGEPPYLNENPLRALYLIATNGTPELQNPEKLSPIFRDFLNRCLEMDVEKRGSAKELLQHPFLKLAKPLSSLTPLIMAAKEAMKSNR
Sequence of ADCK3 (Q8NI60 163-647): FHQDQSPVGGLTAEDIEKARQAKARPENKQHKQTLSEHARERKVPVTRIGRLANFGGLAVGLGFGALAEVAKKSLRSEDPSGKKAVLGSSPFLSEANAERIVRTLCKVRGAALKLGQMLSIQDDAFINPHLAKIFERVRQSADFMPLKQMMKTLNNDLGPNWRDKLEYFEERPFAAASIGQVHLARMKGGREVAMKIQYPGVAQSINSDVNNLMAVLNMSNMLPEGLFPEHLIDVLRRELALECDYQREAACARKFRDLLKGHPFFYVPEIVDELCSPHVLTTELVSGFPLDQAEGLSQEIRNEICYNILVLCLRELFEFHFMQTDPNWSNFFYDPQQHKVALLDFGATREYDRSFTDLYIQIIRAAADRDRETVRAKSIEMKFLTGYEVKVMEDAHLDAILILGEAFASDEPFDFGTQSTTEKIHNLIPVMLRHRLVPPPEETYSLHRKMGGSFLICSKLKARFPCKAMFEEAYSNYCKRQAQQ
Sequence of PDGFRB (P09619 33-1106): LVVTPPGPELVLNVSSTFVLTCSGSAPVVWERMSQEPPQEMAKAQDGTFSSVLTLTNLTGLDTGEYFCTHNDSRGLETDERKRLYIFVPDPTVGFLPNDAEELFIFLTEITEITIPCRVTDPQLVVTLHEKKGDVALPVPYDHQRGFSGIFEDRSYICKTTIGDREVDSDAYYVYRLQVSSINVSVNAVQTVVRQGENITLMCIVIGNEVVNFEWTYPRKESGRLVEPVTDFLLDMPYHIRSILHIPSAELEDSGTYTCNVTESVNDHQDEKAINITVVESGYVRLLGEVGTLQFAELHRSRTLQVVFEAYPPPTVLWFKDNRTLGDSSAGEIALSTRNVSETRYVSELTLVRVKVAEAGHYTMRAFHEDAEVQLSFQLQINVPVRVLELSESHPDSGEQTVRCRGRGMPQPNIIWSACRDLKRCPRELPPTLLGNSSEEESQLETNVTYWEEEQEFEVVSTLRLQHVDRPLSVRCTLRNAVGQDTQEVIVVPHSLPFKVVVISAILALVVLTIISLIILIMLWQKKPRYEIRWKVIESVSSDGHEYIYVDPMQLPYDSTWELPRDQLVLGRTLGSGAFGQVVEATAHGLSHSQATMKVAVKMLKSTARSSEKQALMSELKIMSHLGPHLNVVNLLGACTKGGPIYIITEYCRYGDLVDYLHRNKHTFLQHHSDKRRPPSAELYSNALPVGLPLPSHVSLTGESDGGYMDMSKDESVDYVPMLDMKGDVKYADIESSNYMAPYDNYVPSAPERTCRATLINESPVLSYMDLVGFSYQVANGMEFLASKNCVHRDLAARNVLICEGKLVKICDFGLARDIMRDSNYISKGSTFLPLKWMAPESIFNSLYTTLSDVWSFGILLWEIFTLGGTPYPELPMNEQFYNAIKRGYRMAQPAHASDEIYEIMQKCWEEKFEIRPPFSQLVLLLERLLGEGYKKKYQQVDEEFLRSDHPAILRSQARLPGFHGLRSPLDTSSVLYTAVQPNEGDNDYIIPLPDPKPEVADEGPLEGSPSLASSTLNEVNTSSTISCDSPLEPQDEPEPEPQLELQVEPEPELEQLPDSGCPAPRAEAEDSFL
Sequence of MET (P08581 25-1390): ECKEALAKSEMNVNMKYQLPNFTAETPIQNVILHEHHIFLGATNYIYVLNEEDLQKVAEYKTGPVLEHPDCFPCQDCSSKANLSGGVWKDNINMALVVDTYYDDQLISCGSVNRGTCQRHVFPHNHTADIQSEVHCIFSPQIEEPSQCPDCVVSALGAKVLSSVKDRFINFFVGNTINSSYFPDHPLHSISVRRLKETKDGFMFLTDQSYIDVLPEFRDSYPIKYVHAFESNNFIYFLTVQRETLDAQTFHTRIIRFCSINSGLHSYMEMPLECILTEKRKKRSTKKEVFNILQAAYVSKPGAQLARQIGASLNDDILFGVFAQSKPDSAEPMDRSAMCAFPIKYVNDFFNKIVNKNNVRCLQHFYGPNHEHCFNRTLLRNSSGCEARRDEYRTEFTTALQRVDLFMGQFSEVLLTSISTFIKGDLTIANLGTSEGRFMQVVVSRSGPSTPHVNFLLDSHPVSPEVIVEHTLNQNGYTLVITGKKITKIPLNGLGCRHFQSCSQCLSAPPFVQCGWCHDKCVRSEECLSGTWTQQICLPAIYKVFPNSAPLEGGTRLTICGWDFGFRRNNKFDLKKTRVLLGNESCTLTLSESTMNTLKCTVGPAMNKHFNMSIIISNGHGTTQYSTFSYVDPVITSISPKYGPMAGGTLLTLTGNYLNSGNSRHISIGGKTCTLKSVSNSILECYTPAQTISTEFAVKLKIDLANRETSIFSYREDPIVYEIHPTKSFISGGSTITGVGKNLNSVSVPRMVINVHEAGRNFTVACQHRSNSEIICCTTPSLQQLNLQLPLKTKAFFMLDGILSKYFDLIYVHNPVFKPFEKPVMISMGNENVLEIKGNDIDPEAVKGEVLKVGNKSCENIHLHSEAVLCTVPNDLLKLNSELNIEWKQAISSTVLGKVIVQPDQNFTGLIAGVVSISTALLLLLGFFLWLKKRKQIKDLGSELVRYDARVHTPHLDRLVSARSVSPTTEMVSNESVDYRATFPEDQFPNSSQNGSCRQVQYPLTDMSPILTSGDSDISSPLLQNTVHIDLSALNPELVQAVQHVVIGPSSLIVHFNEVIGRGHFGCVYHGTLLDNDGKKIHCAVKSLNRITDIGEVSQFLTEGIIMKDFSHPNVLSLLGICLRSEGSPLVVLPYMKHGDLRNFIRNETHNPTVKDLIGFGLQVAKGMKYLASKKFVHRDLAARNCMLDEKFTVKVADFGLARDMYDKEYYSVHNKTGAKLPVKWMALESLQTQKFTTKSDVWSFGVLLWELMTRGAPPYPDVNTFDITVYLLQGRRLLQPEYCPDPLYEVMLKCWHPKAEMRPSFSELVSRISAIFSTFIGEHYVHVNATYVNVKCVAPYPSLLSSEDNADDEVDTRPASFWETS
Sequence of RAF1 (P04049 whole entry): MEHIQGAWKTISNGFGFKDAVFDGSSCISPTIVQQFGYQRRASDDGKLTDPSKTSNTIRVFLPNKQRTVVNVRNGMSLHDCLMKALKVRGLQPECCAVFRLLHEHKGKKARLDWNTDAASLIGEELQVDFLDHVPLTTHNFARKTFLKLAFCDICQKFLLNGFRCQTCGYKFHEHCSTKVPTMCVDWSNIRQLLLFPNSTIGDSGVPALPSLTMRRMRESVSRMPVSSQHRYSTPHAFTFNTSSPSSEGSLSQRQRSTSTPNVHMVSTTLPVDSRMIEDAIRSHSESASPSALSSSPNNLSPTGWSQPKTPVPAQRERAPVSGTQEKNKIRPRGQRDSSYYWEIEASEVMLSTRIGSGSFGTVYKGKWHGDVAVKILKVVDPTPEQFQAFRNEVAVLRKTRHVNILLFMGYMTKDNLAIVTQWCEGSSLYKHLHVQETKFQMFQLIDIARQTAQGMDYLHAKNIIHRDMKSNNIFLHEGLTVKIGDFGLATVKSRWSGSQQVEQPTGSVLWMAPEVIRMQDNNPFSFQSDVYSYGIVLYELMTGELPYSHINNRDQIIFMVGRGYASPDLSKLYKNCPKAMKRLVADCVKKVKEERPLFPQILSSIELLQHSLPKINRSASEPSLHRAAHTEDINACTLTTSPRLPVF
Sequence of KIT(V559D, T670I) (P10721 26-976 V559D/T670I): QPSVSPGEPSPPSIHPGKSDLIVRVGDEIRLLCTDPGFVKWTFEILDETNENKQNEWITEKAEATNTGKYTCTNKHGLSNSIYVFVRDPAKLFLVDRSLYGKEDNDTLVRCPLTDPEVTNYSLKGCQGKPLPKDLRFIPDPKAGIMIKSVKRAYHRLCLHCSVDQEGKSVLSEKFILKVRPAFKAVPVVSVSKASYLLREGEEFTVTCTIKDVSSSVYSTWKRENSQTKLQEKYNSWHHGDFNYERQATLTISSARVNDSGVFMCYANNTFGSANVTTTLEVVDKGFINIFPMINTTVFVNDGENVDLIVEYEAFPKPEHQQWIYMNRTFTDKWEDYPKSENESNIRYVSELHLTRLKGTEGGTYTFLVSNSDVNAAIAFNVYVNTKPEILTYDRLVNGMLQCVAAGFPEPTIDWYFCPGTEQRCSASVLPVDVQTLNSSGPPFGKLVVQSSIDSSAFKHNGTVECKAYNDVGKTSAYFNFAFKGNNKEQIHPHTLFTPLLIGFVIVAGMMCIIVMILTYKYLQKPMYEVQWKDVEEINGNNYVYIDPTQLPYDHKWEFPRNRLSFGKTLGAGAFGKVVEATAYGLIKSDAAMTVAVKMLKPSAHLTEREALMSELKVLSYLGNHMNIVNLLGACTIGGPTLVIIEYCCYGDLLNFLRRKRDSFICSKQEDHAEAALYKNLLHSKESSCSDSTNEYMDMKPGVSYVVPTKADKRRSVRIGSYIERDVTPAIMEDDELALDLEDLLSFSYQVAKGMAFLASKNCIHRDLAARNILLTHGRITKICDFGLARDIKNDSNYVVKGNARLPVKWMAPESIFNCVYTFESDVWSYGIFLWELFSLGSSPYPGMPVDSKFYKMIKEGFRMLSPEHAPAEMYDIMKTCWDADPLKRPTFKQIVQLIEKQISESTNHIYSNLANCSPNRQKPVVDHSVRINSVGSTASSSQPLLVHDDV

C=C1CCCCCCCCCC(CO)C1=O (stereo not drawn) [EP009, 2-(Hydroxymethyl)-12-methylenecyclododecanone]
Kinase Activity (% of Control) [1]: 100 % of Control | Kinase Activity (% of Control) [2]: 100 % of Control | Kinase Activity (% of Control) [3]: 97 % of Control | Kinase Activity (% of Control) [4]: 100 % of Control | Kinase Activity (% of Control) [5]: 98 % of Control | Kinase Activity (% of Control) [6]: 100 % of Control | Kinase Activity (% of Control) [7]: 70 % of Control | Kinase Activity (% of Control) [8]: 100 % of Control | Kinase Activity (% of Control) [9]: 94 % of Control | Kinase Activity (% of Control) [10]: 98 % of Control | Kinase Activity (% of Control) [11]: 89 % of Control | Kinase Activity (% of Control) [12]: 100 % of Control
